Source: US20070049564A1 (Wyeth, priority 2005, published 2007)
≈ marks a conversion by molar mass, not a printed value. Like-named read-outs stand apart in the source and are kept apart here.

Key:
E. coli GC 2236 = experiment: MIC, broth microdilution; settings: Escherichia coli
E. coli GC 2231 = experiment: MIC, broth microdilution; settings: Escherichia coli
E. coli GC 2232 = experiment: MIC, broth microdilution; settings: Escherichia coli
E. coli GC 2272 = experiment: MIC, broth microdilution; settings: Escherichia coli
P. aeruginosa GC 2214 = experiment: MIC, broth microdilution; settings: Pseudomonas aeruginosa
S. aureus GC 1131 = experiment: MIC, broth microdilution; settings: Staphylococcus aureus
S. aureus GC 4536 = experiment: MIC, broth microdilution; settings: Staphylococcus aureus
S. aureus GC 2216 = experiment: MIC, broth microdilution; settings: Staphylococcus aureus
S. epidermidis GC 4935 = experiment: MIC, broth microdilution; settings: Staphylococcus epidermidis
E. faecalis GC 4555 = experiment: MIC, broth microdilution; settings: Enterococcus faecalis
E. faecalis GC 2265 = experiment: MIC, broth microdilution; settings: Enterococcus faecalis
E. faecalis GC 2267 = experiment: MIC, broth microdilution; settings: Enterococcus faecalis
Method: Antimicrobial susceptibility testing. The in vitro activities of the antibiotics are determined by the broth microdilution method as recommended by the National Committee for Clinical Laboratory Standards (NCCLS) (1). Mueller-Hinton II broth (MHBII)(BBL Cockeysville, Md.) is the medium employed in the testing procedures. Microtiter plates containing serial dilutions of each antimicrobial agent are inoculated with each organism to yield the appropriate density (10^5 CFU/ml) in a 100 μl final volume. The plates are incubated for 18-22 hours at 35° C. in ambient air.
Representative compounds were first incubated in mouse serum for an hour prior to the in vitro testing against a panel of selected gram-positive and gram-negative bacteria strains. All compounds were also pre-incubated in water for an hour prior to testing as control.

E. faecalis GC 2242 = experiment: MIC, broth microdilution; settings: Enterococcus faecalis
E. faecium GC 2243 = experiment: MIC, broth microdilution; settings: Enterococcus faecium
S. pneumoniae* GC 4465 = experiment: MIC, broth microdilution; settings: Streptococcus pneumoniae
S. pneumoniae+ GC 4465 = experiment: MIC, broth microdilution; settings: Streptococcus pneumoniae
c. albicans GC 3066 = experiment: MIC, broth microdilution
E. coli = experiment: Range of MIC for E. coli strains; settings: Escherichia coli
Staph. = experiment: Range of MIC for Staph. strains, including MRSA; settings: Staphylococcus aureus
Staph. aureus Smith = experiment: In vivo activity (oral, iv; ED50) against Staph. aureus Smith in mice
Method: Representative examples of compounds of Formula I were tested for the oral efficacy using S. aureus Smith in mice.

[1] = read-out: MINIMAL INHIBITORY CONCENTRATION MIC, pre-incubated in Mouse Serum
[2] = read-out: MINIMAL INHIBITORY CONCENTRATION MIC, pre-incubated in Water

SMILES: CCCN(CC(=O)Nc1cc(N(C)C)c2c(c1O)C(=O)C1=C(O)[C@]3(O)C(=O)C(C(N)=O)=C(O)[C@@H](N(C)C)[C@@H]3C[C@@H]1C2)C(=O)OCOC(=O)c1ccsc1 [Example 27, ({[(2-{[(5aR,6aS,7S,10aS)-9-(aminocarbonyl)-4,7-bis(dimethylamino)-1,8,10a,11-tetrahydroxy-10,12-dioxo-5,5a,6,6a,7,10,10a,12-octahydrotetracen-2-yl]amino}-2-oxoethyl)(propyl)amino]carbonyl}oxy)methyl thiophene-3-carboxylate]
- MIC (E. coli GC 2236; GC2236, read-out: MINIMAL INHIBITORY CONCENTRATION MIC, pre-incubated in Mouse Serum): 0.5 µg/mL (≈ 0.662 µM)
- MIC (E. coli GC 2236; GC2236, read-out: MINIMAL INHIBITORY CONCENTRATION MIC, pre-incubated in Water): 64 µg/mL (≈ 84.7 µM)
- MIC (E. coli GC 2231; GC2231, read-out: MINIMAL INHIBITORY CONCENTRATION MIC, pre-incubated in Mouse Serum): 1 µg/mL (≈ 1.32 µM)
- MIC (E. coli GC 2231; GC2231, read-out: MINIMAL INHIBITORY CONCENTRATION MIC, pre-incubated in Water): > 64 µg/mL
- MIC (E. coli GC 2232; GC2232, read-out: MINIMAL INHIBITORY CONCENTRATION MIC, pre-incubated in Mouse Serum): 0.5 µg/mL (≈ 0.662 µM)
- MIC (E. coli GC 2232; GC2232, read-out: MINIMAL INHIBITORY CONCENTRATION MIC, pre-incubated in Water): 64 µg/mL (≈ 84.7 µM)
- MIC (E. coli GC 2272; GC2272, read-out: MINIMAL INHIBITORY CONCENTRATION MIC, pre-incubated in Mouse Serum): 0.5 µg/mL (≈ 0.662 µM)
- MIC (E. coli GC 2272; GC2272, read-out: MINIMAL INHIBITORY CONCENTRATION MIC, pre-incubated in Water): 32 µg/mL (≈ 42.3 µM)
- MIC (P. aeruginosa GC 2214; GC2214, read-out: MINIMAL INHIBITORY CONCENTRATION MIC, pre-incubated in Mouse Serum): 8 µg/mL (≈ 10.6 µM)
- MIC (P. aeruginosa GC 2214; GC2214, read-out: MINIMAL INHIBITORY CONCENTRATION MIC, pre-incubated in Water): > 64 µg/mL
- MIC (S. aureus GC 1131; GC1131, read-out: MINIMAL INHIBITORY CONCENTRATION MIC, pre-incubated in Mouse Serum): 0.12 µg/mL (≈ 0.159 µM)
- MIC (S. aureus GC 1131; GC1131, read-out: MINIMAL INHIBITORY CONCENTRATION MIC, pre-incubated in Water): 0.25 µg/mL (≈ 0.331 µM)
- MIC (S. aureus GC 4536; GC4536, read-out: MINIMAL INHIBITORY CONCENTRATION MIC, pre-incubated in Mouse Serum): 0.12 µg/mL (≈ 0.159 µM)
- MIC (S. aureus GC 4536; GC4536, read-out: MINIMAL INHIBITORY CONCENTRATION MIC, pre-incubated in Water): 0.12 µg/mL (≈ 0.159 µM)
- MIC (S. aureus GC 2216; GC2216, read-out: MINIMAL INHIBITORY CONCENTRATION MIC, pre-incubated in Mouse Serum): 0.25 µg/mL (≈ 0.331 µM)
- MIC (S. aureus GC 2216; GC2216, read-out: MINIMAL INHIBITORY CONCENTRATION MIC, pre-incubated in Water): 0.25 µg/mL (≈ 0.331 µM)
- MIC (S. epidermidis GC 4935; GC4935, read-out: MINIMAL INHIBITORY CONCENTRATION MIC, pre-incubated in Mouse Serum): 0.25 µg/mL (≈ 0.331 µM)
- MIC (S. epidermidis GC 4935; GC4935, read-out: MINIMAL INHIBITORY CONCENTRATION MIC, pre-incubated in Water): 1 µg/mL (≈ 1.32 µM)
- MIC (E. faecalis GC 4555; GC4555, read-out: MINIMAL INHIBITORY CONCENTRATION MIC, pre-incubated in Mouse Serum): 0.25 µg/mL (≈ 0.331 µM)
- MIC (E. faecalis GC 4555; GC4555, read-out: MINIMAL INHIBITORY CONCENTRATION MIC, pre-incubated in Water): 1 µg/mL (≈ 1.32 µM)
- MIC (E. faecalis GC 2265; GC2265, read-out: MINIMAL INHIBITORY CONCENTRATION MIC, pre-incubated in Mouse Serum): 1 µg/mL (≈ 1.32 µM)
- MIC (E. faecalis GC 2265; GC2265, read-out: MINIMAL INHIBITORY CONCENTRATION MIC, pre-incubated in Water): 2 µg/mL (≈ 2.65 µM)
- MIC (E. faecalis GC 2267; GC2267, read-out: MINIMAL INHIBITORY CONCENTRATION MIC, pre-incubated in Mouse Serum): 1 µg/mL (≈ 1.32 µM)
- MIC (E. faecalis GC 2267; GC2267, read-out: MINIMAL INHIBITORY CONCENTRATION MIC, pre-incubated in Water): 2 µg/mL (≈ 2.65 µM)
- MIC (E. faecalis GC 2242; GC2242, read-out: MINIMAL INHIBITORY CONCENTRATION MIC, pre-incubated in Mouse Serum): 0.5 µg/mL (≈ 0.662 µM)
- MIC (E. faecalis GC 2242; GC2242, read-out: MINIMAL INHIBITORY CONCENTRATION MIC, pre-incubated in Water): 0.5 µg/mL (≈ 0.662 µM)
- MIC (E. faecium GC 2243; GC2243, read-out: MINIMAL INHIBITORY CONCENTRATION MIC, pre-incubated in Mouse Serum): 0.12 µg/mL (≈ 0.159 µM)
- MIC (E. faecium GC 2243; GC2243, read-out: MINIMAL INHIBITORY CONCENTRATION MIC, pre-incubated in Water): 0.25 µg/mL (≈ 0.331 µM)
- MIC (S. pneumoniae* GC 4465; [1]): < 0.06 µg/mL
- MIC (S. pneumoniae* GC 4465; [2]): < 0.06 µg/mL
- MIC (S. pneumoniae+ GC 4465; [1]): 1 µg/mL (≈ 1.32 µM)
- MIC (S. pneumoniae+ GC 4465; [2]): 2 µg/mL (≈ 2.65 µM)
- MIC (c. albicans GC 3066; Candida albicans, GC3066, read-out: MINIMAL INHIBITORY CONCENTRATION MIC): > 64 µg/mL
- MINIMAL INHIBITORY CONCENTRATION MIC (c. albicans GC 3066; pre-incubated in Water): >64 UG/ML
- MIC (E. coli; 20 h, read-out: Range of MIC, E. coli (Mouse Serum)): 0.5 to 1 µg/mL (≈ 0.662 to 1.32 µM)
- MIC (E. coli; read-out: Minimum inhibitory concentration (MIC), E. coli (Human Serum)): 4 to 16 µg/mL (≈ 5.29 to 21.2 µM)
- MIC (E. coli; read-out: Range of MIC, E. coli (mouse serum)): 0.5 to 1 µg/mL (≈ 0.662 to 1.32 µM)
- MIC (Staph.; MRSA, read-out: Range of MIC, Staph (Mouse Serum)): 0.12 to 2 µg/mL (≈ 0.159 to 2.65 µM)
- MIC (Staph.; MRSA, read-out: Range of MIC, Staph (Water)): 0.12 to 2 µg/mL (≈ 0.159 to 2.65 µM)
- MIC (Staph.; MRSA, read-out: Range of MIC, Staph. (mouse serum)): 0.12 to 2 µg/mL (≈ 0.159 to 2.65 µM)
- MIC (Staph.; MRSA, read-out: Range of MIC, Staph. (water)): 0.12 to 2 µg/mL (≈ 0.159 to 2.65 µM)
- MIC (Staph.; read-out: Minimum inhibitory concentration (MIC), Staph (Human Serum)): 0.25 to 2 µg/mL (≈ 0.331 to 2.65 µM)
- MIC (Staph.; read-out: Minimum inhibitory concentration (MIC), Staph (Water)): 0.5 to 4 µg/mL (≈ 0.662 to 5.29 µM)
- ED50 (Staph. aureus Smith; Staphylococcus aureus, in Mus musculus, iv, read-out: ED50 SIV (Staph aureus Smith)): 0.44 mg/kg
- ED50 (Staph. aureus Smith; Staphylococcus aureus, in Mus musculus, po, read-out: ED50 SOD (Staph aureus Smith)): 3.9 mg/kg
- ED50 (Staph. aureus Smith; Staphylococcus aureus, in Mus musculus, po, read-out: ED50 Staph Smith SOD): 3.9 mg/kg
- ED50 (Staph. aureus Smith; iv, read-out: ED50 Staph Smith SIV): 0.44 mg/kg
